DC50 and Dmax data for eleven molecules are collected here from US20260184710A1, “CASITAS B-LINEAGE LYMPHOMA PROTOONCOGENE B (CBL-B) DEGRADING COMPOUNDS AND ASSOCIATED METHODS OF USE” (Arvinas Operations, Inc., priority 2022, published 2026).

Some results are limits rather than exact numbers.

This assay addresses T1, Cbl-b (Homo sapiens, UniProt Q13191).
T1 construct: Cbl-b-HiBit KI Jurkat Cells were purchased from Promega; host or cells: Cbl-b-HiBiT knock-in Jurkat cells
In words: Cbl-b Degradation Method B (Nano-Glo HiBiT lytic detection). It counts as cell-based. Conditions: Cbl-b-HiBit KI Jurkat Cells, incubated at least 6-24 hours; for DC50: half maximal degradation, read-out: Cbl-b Degredation Method B IC50; for Dmax: maximum degradation observed, read-out: Cbl-b Degredation Method B Dmax (%). The method, then: Cbl-b Degradation Method B [table] Cbl-b-HiBit KI Jurkat Cells were purchased from Promega, and cell media consisted of RPMI 1640 with 10% […] and 1% pen/strep. The cells were counted, measured for viability, and 35 μL of the cell solution was seeded into 384 well flat bottom plates at a ratio of 20,000 cells per 35 μL. After which, the plates were incubated for ˜24 hours at 37° C. and 5% CO2. Compounds were ordered from Evotec in a 384 well plate at a 1 mM top concentration in DMSO and serially diluted 1:3 in DMSO for an 11-point dose response. Using the Bravo instrument, 1 uL of compound solution or DMSO was transferred to 125 uL of media. Each well was treated with 5 μL of compound plus media mixture or DMO and subsequently incubated for at least 6-24 hours at 37° C. and 5% CO2. After incubation, 30 μL of either NanoGlo media was added to each cell, and the plates read on the Synergy Neo2 machine. The concentration of an exemplary compound that leads to half maximal degradation (DC50) as well as the maximum degradation observed (Dmax, conventionally expressed as a percentage of control) is shown below in Table 2.

T1 sequence (Q13191 whole entry): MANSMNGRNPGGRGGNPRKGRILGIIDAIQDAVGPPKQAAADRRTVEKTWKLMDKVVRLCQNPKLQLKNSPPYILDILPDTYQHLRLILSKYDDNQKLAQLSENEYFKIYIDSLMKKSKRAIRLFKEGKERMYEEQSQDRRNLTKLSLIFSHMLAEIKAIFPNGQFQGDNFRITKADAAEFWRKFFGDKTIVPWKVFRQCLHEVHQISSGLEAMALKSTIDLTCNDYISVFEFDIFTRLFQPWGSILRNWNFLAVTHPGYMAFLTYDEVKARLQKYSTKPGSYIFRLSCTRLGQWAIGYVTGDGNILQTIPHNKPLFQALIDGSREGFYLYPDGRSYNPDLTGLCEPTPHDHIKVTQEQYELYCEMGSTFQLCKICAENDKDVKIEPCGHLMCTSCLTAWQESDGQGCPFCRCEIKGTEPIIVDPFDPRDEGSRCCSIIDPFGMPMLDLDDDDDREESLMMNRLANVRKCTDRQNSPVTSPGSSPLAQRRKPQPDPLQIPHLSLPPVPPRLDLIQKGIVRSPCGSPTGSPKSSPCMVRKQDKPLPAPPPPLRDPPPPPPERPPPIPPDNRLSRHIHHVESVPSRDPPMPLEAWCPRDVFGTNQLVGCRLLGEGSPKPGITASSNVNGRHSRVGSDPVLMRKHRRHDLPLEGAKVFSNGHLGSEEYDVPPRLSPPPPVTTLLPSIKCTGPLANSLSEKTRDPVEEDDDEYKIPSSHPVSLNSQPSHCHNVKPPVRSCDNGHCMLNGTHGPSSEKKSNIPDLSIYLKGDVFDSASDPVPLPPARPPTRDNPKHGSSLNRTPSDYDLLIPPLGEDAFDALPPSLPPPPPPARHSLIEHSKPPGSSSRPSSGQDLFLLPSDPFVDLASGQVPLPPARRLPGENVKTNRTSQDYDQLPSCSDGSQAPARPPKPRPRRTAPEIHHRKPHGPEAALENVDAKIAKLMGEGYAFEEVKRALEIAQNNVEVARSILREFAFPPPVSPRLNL

Turning to `CC1c2nc(N3CCC(O[C@H]4CC[C@H](CN5CCN(Cc6cc7c(c(C(F)(F)F)c6)CN(c6cccc(C8(Cc9nncn9C)CCOCC8)c6)C7=O)CC5)CC4)CC3)ccc2C(=O)N1C1CCC(=O)NC1=O` (mixture of isomers) [Example 233, rac-3-[7-methyl-5-oxo-2-(4-{[(1r,4r)-4-[(4-{[2-(3-{4-[(4-methyl-4H-1,2,4-triazol-3-yl)methyl]oxan-4-yl}phenyl)-3-oxo-7-(trifluoromethyl)-2,3-dihydro-1H-isoindol-5-yl]methyl}piperazin-1-yl)methyl]cyclohexyl]oxy}piperidin-1-yl)-5H,6H,7H-pyrrolo[3,4-b]pyridin-6-yl]piperidine-2,6-dione], the DC50 is > 500 nM.
In the case of `CCn1cnnc1CC1(c2cccc(N3Cc4c(cc(CN5CCN(C[C@H]6CC[C@H](OC7CCN(c8ccc9c(n8)C(C)N(C8CCC(=O)NC8=O)C9=O)CC7)CC6)CC5)cc4C(F)(F)F)C3=O)c2)COC1` (mixture of isomers) [Example 235, rac-3-[7-methyl-5-oxo-2-(4-{[(1r,4r)-4-[(4-{[2-(3-{3-[(4-ethyl-4H-1,2,4-triazol-3-yl)methyl]oxetan-3-yl}phenyl)-3-oxo-7-(trifluoromethyl)-2,3-dihydro-1H-isoindol-5-yl]methyl}piperazin-1-yl)methyl]cyclohexyl]oxy}piperidin-1-yl)-5H,6H,7H-pyrrolo[3,4-b]pyridin-6-yl]piperidine-2,6-dione], the DC50 was < 5 nM and the Dmax lay in the range of 35 to 70%.
On to `CC1c2nc(N3CCC(O[C@H]4CC[C@H](CN5CCN(Cc6cc7c(c(C(F)(F)F)c6)CN(c6cccc(C8(Cc9nncn9C)COC8)c6)C7=O)C(C)(C)C5)CC4)CC3)ccc2C(=O)N1C1CCC(=O)NC1=O` (relative stereo) [Example 246, rel-3-[7-methyl-5-oxo-2-(4-{[(1r,4r)-4-[(3,3-dimethyl-4-{[2-(3-{3-[(4-methyl-4H-1,2,4-triazol-3-yl)methyl]oxetan-3-yl}phenyl)-3-oxo-7-(trifluoromethyl)-2,3-dihydro-1H-isoindol-5-yl]methyl}piperazin-1-yl)methyl]cyclohexyl]oxy}piperidin-1-yl)-5H,6H,7H-pyrrolo[3,4-b]pyridin-6-yl]piperidine-2,6-dione], for which the DC50 was < 5 nM and the Dmax lay within 35 to 70%.
For `CC1c2nc(N3CCC(O[C@H]4CC[C@H](CN5CCN(Cc6cc(C(F)(F)F)c7cn(-c8cccc(C9(Cc%10nncn%10C)CC9)c8)nc7c6)C(C)(C)C5)CC4)CC3)ccc2C(=O)N1C1CCC(=O)NC1=O` (relative stereo) [Example 253, rel-3-[7-methyl-5-oxo-2-(4-{[(1r,4r)-4-[(3,3-dimethyl-4-{[2-(3-{1-[(4-methyl-4H-1,2,4-triazol-3-yl)methyl]cyclopropyl}phenyl)-4-(trifluoromethyl)-2H-indazol-6-yl]methyl}piperazin-1-yl)methyl]cyclohexyl]oxy}piperidin-1-yl)-5H,6H,7H-pyrrolo[3,4-b]pyridin-6-yl]piperidine-2,6-dione], the DC50 was > 500 nM.
For the molecule `CC1c2nc(N3CCC(O[C@H]4CC[C@H](CN5CCN(Cc6cc(C(F)(F)F)c7cn(-c8cccc(C9(Cc%10nncn%10C)CCC9)c8)nc7c6)C(C)(C)C5)CC4)CC3)ccc2C(=O)N1C1CCC(=O)NC1=O` (relative stereo) [Example 255, rel-3-[7-methyl-5-oxo-2-(4-{[(1r,4r)-4-[(3,3-dimethyl-4-{[2-(3-{1-[(4-methyl-4H-1,2,4-triazol-3-yl)methyl]cyclobutyl}phenyl)-4-(trifluoromethyl)-2H-indazol-6-yl]methyl}piperazin-1-yl)methyl]cyclohexyl]oxy}piperidin-1-yl)-5H,6H,7H-pyrrolo[3,4-b]pyridin-6-yl]piperidine-2,6-dione], the DC50 is > 500 nM.
On to `C[C@@H]1CN(CC2CCC(OC3CCN(c4ccc5c(n4)[C@@H](C)N(C4CCC(=O)NC4=O)C5=O)CC3)CC2)CCN1Cc1cc2c(c(C(F)(F)F)c1)CN(c1cccc([C@]3(Cc4nncn4C)C[C@H](C#N)C3)c1)C2=O` (single isomer, unassigned) [Example 239, (1rs&,3rs&)-3-[3-(6-{[(2R)-2-methyl-4-{[(1rs,4rs)-4-({1-[(7R*)-6-(2,6-dioxopiperidin-3-yl)-7-methyl-5-oxo-5H,6H,7H-pyrrolo[3,4-b]pyridin-2-yl]piperidin-4-yl}oxy)cyclohexyl]methyl}piperazin-1-yl]methyl}-1-oxo-4-(trifluoromethyl)-2,3-dihydro-1H-isoindol-2-yl)phenyl]-3-[(4-methyl-4H-1,2,4-triazol-3-yl)methyl]cyclobutane-1-carbonitrile], for which the DC50 was < 5 nM and the Dmax was > 70%.
As to `C[C@@H]1CN(CC2CCC(OC3CCN(c4ccc5c(n4)[C@@H](C)N(C4CCC(=O)NC4=O)C5=O)CC3)CC2)CCN1Cc1cc2c(c(C(F)(F)F)c1)CN(c1cccc([C@]3(Cc4nncn4C)C[C@H](C#N)C3)c1)C2=O` (single isomer, unassigned) [Example 240, (1rs&,3rs&)-3-[3-(6-{[(2R)-2-methyl-4-{[(1rs,4rs)-4-({1-[(7R*)-6-(2,6-dioxopiperidin-3-yl)-7-methyl-5-oxo-5H,6H,7H-pyrrolo[3,4-b]pyridin-2-yl]piperidin-4-yl}oxy)cyclohexyl]methyl}piperazin-1-yl]methyl}-1-oxo-4-(trifluoromethyl)-2,3-dihydro-1H-isoindol-2-yl)phenyl]-3-[(4-methyl-4H-1,2,4-triazol-3-yl)methyl]cyclobutane-1-carbonitrile], the DC50 is > 500 nM.
Take `C[C@@H]1c2nc(N3CCC(O[C@H]4CC[C@H](CN5CCN(Cc6cc7c(c(C(F)(F)F)c6)CN(c6cccc(C8(Cc9nncn9C)CC(C#N)C8)c6)C7=O)[C@@H](C)C5)CC4)CC3)ccc2C(=O)N1C1CCC(=O)NC1=O` (single isomer, unassigned) [Example 247, (1r***,3r***)-3-[3-(6-{[(2S)-2-methyl-4-{[(1r**,4r**)-4-({1-[(7R*)-6-(2,6-dioxopiperidin-3-yl)-7-methyl-5-oxo-5H,6H,7H-pyrrolo[3,4-b]pyridin-2-yl]piperidin-4-yl}oxy)cyclohexyl]methyl}piperazin-1-yl]methyl}-1-oxo-4-(trifluoromethyl)-2,3-dihydro-1H-isoindol-2-yl)phenyl]-3-[(4-methyl-4H-1,2,4-triazol-3-yl)methyl]cyclobutane-1-carbonitrile]: the DC50 was < 5 nM and the greatest degradation seen (Dmax) is > 70%.
`C[C@@H]1c2nc(N3CCC(O[C@H]4CC[C@H](CN5CCN(Cc6cc7c(c(C(F)(F)F)c6)CN(c6cccc(C8(Cc9nncn9C)CC(C#N)C8)c6)C7=O)[C@@H](C)C5)CC4)CC3)ccc2C(=O)N1C1CCC(=O)NC1=O` (single isomer, unassigned) [Example 248, (1r***,3r***)-3-[3-(6-{[(2S)-2-methyl-4-{[(1r**,4r**)-4-({1-[(7R*)-6-(2,6-dioxopiperidin-3-yl)-7-methyl-5-oxo-5H,6H,7H-pyrrolo[3,4-b]pyridin-2-yl]piperidin-4-yl}oxy)cyclohexyl]methyl}piperazin-1-yl]methyl}-1-oxo-4-(trifluoromethyl)-2,3-dihydro-1H-isoindol-2-yl)phenyl]-3-[(4-methyl-4H-1,2,4-triazol-3-yl)methyl]cyclobutane-1-carbonitrile]: the DC50 was > 500 nM.
On to `Cn1cnnc1CC1(c2cccc(N3Cc4c(cc(CN5CCC[C@H](CN6CC[C@@H](OC7CCN(c8ccc9c(c8F)CN(C8CCC(=O)NC8=O)C9=O)CC7)CC6(C)C)C5)cc4C(F)(F)F)C3=O)c2)CC(C#N)C1` (single isomer, unassigned) [Example 290, (1r**,3r**)-3-[3-(6-{[(3S)-3-{[(4R*)-4-({1-[2-(2,6-dioxopiperidin-3-yl)-4-fluoro-1-oxo-2,3-dihydro-1H-isoindol-5-yl]piperidin-4-yl}oxy)-2,2-dimethylpiperidin-1-yl]methyl}piperidin-1-yl]methyl}-1-oxo-4-(trifluoromethyl)-2,3-dihydro-1H-isoindol-2-yl)phenyl]-3-[(4-methyl-4H-1,2,4-triazol-3-yl)methyl]cyclobutane-1-carbonitrile], for which the DC50 is > 500 nM.
The same measure, in the same setting: for `Cn1cnnc1CC1(c2cccc(N3Cc4c(cc(CN5CCC[C@H](CN6CC[C@@H](OC7CCN(c8ccc9c(c8F)CN(C8CCC(=O)NC8=O)C9=O)CC7)CC6(C)C)C5)cc4C(F)(F)F)C3=O)c2)CC(C#N)C1` (single isomer, unassigned) [Example 291, (1r**,3r**)-3-[3-(6-{[(3S)-3-{[(4R*)-4-({1-[2-(2,6-dioxopiperidin-3-yl)-4-fluoro-1-oxo-2,3-dihydro-1H-isoindol-5-yl]piperidin-4-yl}oxy)-2,2-dimethylpiperidin-1-yl]methyl}piperidin-1-yl]methyl}-1-oxo-4-(trifluoromethyl)-2,3-dihydro-1H-isoindol-2-yl)phenyl]-3-[(4-methyl-4H-1,2,4-triazol-3-yl)methyl]cyclobutane-1-carbonitrile] the value was > 500 nM.
